Source: US20190328763A1, “A LIPID NANOPARTICLE FOR CARRYING ANTISENSE OLIGONUCLEOTIDES INHIBITING BCL-2 AND METHOD FOR PREPARING THE SAME” (NANJING LUYE PHARMACEUTICAL CO., LTD., priority 2016, published 2019)
Like-named read-outs stand apart in the source and are kept apart here. d = 2'-deoxy (DNA); m = 2'-O-methyl

Columns and labels:
Format in all cases: cell-based
bcl-2 messenger RNA [1] = assay: Gene level (Bcl-2) G3139 regulation experiment, Real-Time-PCR, KB cancer cells; details: for Ratio (bcl-2/β-actin): 1 μM G3139, 4 h incubation then 48 h culture, control group 100%
Procedure: (§1) (1) We will place cancer cells, such as A549 cells, KB cells, and LNCaP prostate cancer cells in 6-well plates and make the cells grow in an RPMI1640 culture solution containing 10% fetal calf serum to allow the cells to grow overnight to achieve a plating rate of 80%.
(§2) (3) After incubation in an environment of 37 degrees and 5% CO2 for 4 h, the cells will be transferred to a fresh culture solution and the culture will last for 48 h. Cells were collected, lysed, and extracted RNA according to standard methods.
(§3) (4) We will analyze the levels of bcl-2 messenger RNA in each group with the Real-Time-PCR technology, and we can finally quantify the expression of bcl-2 after treatment in each group according to the standard methods of reagent suppliers.
By designing different sample groups, we regulate the levels of bcl-2 in KB cells.

bcl-2 messenger RNA [2] = assay: Gene level (Bcl-2) G3139 regulation experiment, Real-Time-PCR, A549 lung cancer cells; details: for Ratio (bcl-2/β-actin): 1 μM G3139, 4 h incubation then 48 h culture, control group 100%
Procedure: as §1, §2, §3

bcl-2 messenger RNA [3] = assay: Gene level (Bcl-2) G3139 regulation experiment, Real-Time-PCR, LNCaP prostate cancer cells; details: for Ratio (bcl-2/β-actin): 1 μM G3139, 4 h incubation then 48 h culture, control group 100%
Procedure: as §1, §2, §3

A549 cells = assay: A549 lung cancer cytotoxicity test (MTS); details: Homo sapiens, paclitaxel 1 nmol/L-100 μmol/L, antisense oligonucleotide fixed 10 μmol/L
Procedure: (1) We placed A549 cells in 96-well plates, and made the cells grow in an RPMI1640 culture solution containing 10% fetal calf serum to allow the cells to grow overnight to achieve a plating rate of 60-70%.
(2) A toxicity test of multiple paclitaxel (PTX) concentration gradients (1 nmol/L-100 μmol/L) and antisense oligonucleotide concentrations (10 μmol/L) in each group was conducted with each concentration group on the second day, and each concentration group was incubated in a 37 degree and 5% CO2 environment.
(3) 20 ul of MTS reagent (a novel tetrazole compound) was added at different time points 24 h, 48 h, and 72 h, and the detection was performed at a wavelength of 490 nm and the results were as shown in the following table: […]

Compound | Ratio (bcl-2/β-actin) (bcl-2 messenger RNA [1]) | Ratio (bcl-2/β-actin) (bcl-2 messenger RNA [2]) | Ratio (bcl-2/β-actin) (bcl-2 messenger RNA [3]) | gene-level down-regulation of bcl-2 (bcl-2 messenger RNA [1]; 1 μM G3139) | gene-level down-regulation of bcl-2 (bcl-2 messenger RNA [2]; 1 μM G3139) | gene-level down-regulation of bcl-2 (bcl-2 messenger RNA [3]; 1 μM G3139) | IC50 (A549 cells; 24 h, read-out: IC50 after 24 h) | IC50 (A549 cells; 48 h, read-out: IC50 after 48 h) | IC50 (A549 cells; 72 h, read-out: IC50 after 72 h)
5′-TCT CCC AGC GTG CGC CAT-3′ (antisense TCTCCCAGCGTGCGCCAT; DNA, all phosphorothioate, methylation of C not given here) [free G3139] | 95.31% | 88.75% | 93.15% |  |  |  |  |  | 
5′-UCU CCC AGC GTG CGC CAU-3′ (antisense UCUCCCAGCGTGCGCCAU; sugars from the 5' end m3 d12 m3, all phosphorothioate, methylation of C not given here) [free 2′-O-Me modified G3139] | 89.04% | 93.29% | 94.89% | 10.96% | 6.71% | 5.11% |  |  | 
CC(=O)O[C@H]1C(=O)[C@@]2(C)[C@H]([C@H](OC(=O)c3ccccc3)[C@]3(O)C[C@H](OC(=O)[C@H](O)[C@@H](NC(=O)c4ccccc4)c4ccccc4)C(C)=C1C3(C)C)[C@]1(OC(C)=O)CO[C@@H]1C[C@@H]2O [Paclitaxel (PTX) alone, Paclitaxel] |  |  |  |  |  |  | 75.6 nM | 28.5 nM | 17.9 nM
